# Laboratory results from patent US8114850B2, “Antiproliferative activity of G-rich oligonucleotides and method of using same to bind to nucleolin” (Advanced Cancer Therapeutics, LLC, priority 1999, dated 2012).
# Tests used:
# DU145 cells = assay: MTT cell growth assay, DU145 cells; format: cell-based, human; details: 15 uM on day 1, half the initial dose on days 2-4; 3′-propylamino oligonucleotides; vs water control; FIG. 1A
# Description: (§1) Cells were plated at low density ([…] cells per well, depending on cell line) in the appropriate serum-supplemented medium in 96-well plates (one plate per MTT assay time point) and grown under standard conditions of cell culture. The following day (day 1) oligonucleotide, or water as control, was added to the culture medium to give a final concentration of 15 uM. Further oligonucleotide, equivalent to half the initial dose, was added to the culture medium on days two, three and four.
# (§2) Cells were assayed using the MTT assay (Morgan (1998) Methods. Mol. Biol. 79, 179-183) on days one, three, five, seven and nine after plating. The culture medium was not changed throughout the duration of the experiment (which was the time required for untreated cells to grow to confluence). Experiments were performed in triplicate and bars represent the standard error of the data.
# [1] = molecular target: T1, GRO-binding protein/nucleolin (HeLa nuclear extracts) (Homo sapiens, UniProt P19338); assay: UV cross-linking of oligonucleotides to HeLa nuclear extracts; details: labeled oligonucleotide with HeLa nuclear extracts; FIG. 6C
# T1 construct: HeLa nuclear extracts used in EMSAs were purchased from Promega Inc. (bandshift grade); host or cells: HeLa nuclear extract (bandshift grade), purchased
# Description: For the UV crosslinking experiments, samples were incubated as described above (EMSA). They were then placed on ice and irradiated at 5 cm from the source using the “autocross link” function of a Stratagene UV Stratalinker. Following irradiation, samples were electrophoresed under denaturing conditions on a 8% polyacrylamide-SDS gel using a standard Tris glycine buffer and visualized by autoradiography.
# To determine the approximate molecular weight of the protein involved in complex A, and to confirm that competition for this complex results from direct binding of the protein to oligonucleotides, a UV cross-linking study was conducted. 5′-Labeled oligonucleotides and HeLa nuclear extracts were incubated alone or in the presence of unlabeled competitor oligonucleotides.
# The samples were then irradiated with UV light resulting in cross-link formation between protein residues and thymidines in the oligonucleotide. The protein was thus radiolabeled and could be detected on a SDS-polyacrylamide gel.
# HeLa cells = assay: MTT cell growth assay, HeLa cells; format: cell-based, human; details: 15 uM on day 1, half the initial dose on days 2-4; 3′-propylamino oligonucleotides; vs water control; FIG. 1C
# Description: as §1, §2
# MCF-7 cells = assay: MTT cell growth assay, MCF-7 cells; format: cell-based, human; details: 15 uM on day 1, half the initial dose on days 2-4; 3′-propylamino oligonucleotides; vs water control; FIG. 1D
# Description: as §1, §2
# HS27 cells = assay: MTT cell growth assay, non-malignant HS27 cells; format: cell-based; details: compared to most malignant cell lines; FIG. 2
# Description: as §1, §2
# [2] = molecular target: T2, TEL-binding protein (GRO-binding protein/nucleolin, MDA-MB-231 nuclear extracts) (Homo sapiens, UniProt P19338); assay: Competitive EMSA, labeled TEL and MDA-MB-231 nuclear extracts; details: 10 nM unlabeled oligonucleotide; labeled TEL, MDA-MB-231 nuclear extracts
# T2 construct: Nuclear and cytoplasmic extracts from MDA-MB-231 cells were prepared using the protocol described in F. M. Ausubel et al; endogenous in cells; host or cells: MDA-MB-231 nuclear extract, prepared in house
# [3] = system: MDA-MB-231 breast cancer cells; assay: Chemotherapeutic agent and GRO combination, MTT assay; format: cell-based, human; details: cisplatin 0.5 µg/ml, GR029A 8 uM added after two hours, MTT after six days
# Description: Cisplatin (in 1% DMSO solution to give a final concentration of […]) was added to the medium of MDA-MB-231 breast cancer cells growing in culture. After two hours, GR029A (in PBS solution to give a final concentration of 8 uM) was added to the medium. After six days, the relative number of viable cells was determined using the MTT assay. Cells treated with GR029A alone received an appropriate volume of 1% DMSO in place of cisplatin. Cells treated with cisplatin alone received an appropriate volume of PBS in place of GR029A.
# U937 cells = assay: MTT dose dependence, leukemic cell line U937; format: cell-based; details: FIG. 3
# Source text: (§3) FIG. 3: MTT assays showing the dose dependence of growth modulation by GR029A for leukemic cell lines, U937 and […], and a non-malignant mouse hematopoietic stem cell line (ATCC 2037).
# K562 cells = assay: MTT dose dependence, leukemic cell line K562; format: cell-based; details: FIG. 3
# Source text: as §3
# [4] = system: hematopoietic stem cell line (ATCC 2037); assay: MTT dose dependence, non-malignant hematopoietic stem cell line; format: cell-based, mouse; details: FIG. 3
# Source text: as §3
# T1 sequence (P19338 whole entry): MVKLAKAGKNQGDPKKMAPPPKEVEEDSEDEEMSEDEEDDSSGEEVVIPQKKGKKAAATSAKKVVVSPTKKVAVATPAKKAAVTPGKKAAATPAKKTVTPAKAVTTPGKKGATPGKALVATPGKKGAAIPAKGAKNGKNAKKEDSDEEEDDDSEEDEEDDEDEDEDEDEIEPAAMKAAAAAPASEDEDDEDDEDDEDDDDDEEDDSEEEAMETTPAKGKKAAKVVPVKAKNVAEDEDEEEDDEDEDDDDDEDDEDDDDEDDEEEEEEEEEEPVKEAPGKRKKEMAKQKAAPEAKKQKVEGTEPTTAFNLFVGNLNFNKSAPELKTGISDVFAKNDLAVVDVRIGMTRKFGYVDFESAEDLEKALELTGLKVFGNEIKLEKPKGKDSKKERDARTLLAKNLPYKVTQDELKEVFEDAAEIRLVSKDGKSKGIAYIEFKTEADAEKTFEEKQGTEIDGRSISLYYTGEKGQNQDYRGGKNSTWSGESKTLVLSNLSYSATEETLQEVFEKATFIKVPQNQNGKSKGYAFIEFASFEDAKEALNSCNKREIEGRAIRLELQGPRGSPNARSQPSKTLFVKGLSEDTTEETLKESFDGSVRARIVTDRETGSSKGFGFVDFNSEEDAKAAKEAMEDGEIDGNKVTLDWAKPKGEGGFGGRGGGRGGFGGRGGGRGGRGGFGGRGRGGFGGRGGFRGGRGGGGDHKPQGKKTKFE
# T2 sequence (P19338 whole entry): as above
substance,measurement,setting,value
"5′-GTTGTTTGG GGTGGT-3′ (GTTGTTTGGGGTGGT; DNA, backbone not given here; further chemistry not fully specified) [GRO15A]",growth of DU145 cells (MTT),DU145 cells,modulated proliferation
same,UV cross-linked protein complex (approximately 100 kDa),[1],crosslinked to a protein
same,growth of HeLa cells (MTT),HeLa cells,modulated proliferation
same,growth of MCF-7 cells (MTT),MCF-7 cells,modulated proliferation
5′-TTTGGTGGTGGTGG TTGTGGTGGTGGTGG-3′ [GR029A],growth of DU145 cells (MTT),DU145 cells,modulated proliferation
same,growth modulatory effect on non-malignant HS27 cells,HS27 cells,lesser growth modulatory effect
same,UV cross-linked protein complex (approximately 100 kDa),[1],formed this approximately 100 kDa complex
same,competition for protein binding in competitive EMSA,[2],competed strongly
same,growth modulation,[3],5%
same,"antiproliferative effect, U937 leukemia cells",U937 cells,antiproliferative effects
same,"antiproliferative effect, K562 leukemia cells",K562 cells,antiproliferative effects
same,growth of HeLa cells (MTT),HeLa cells,modulated proliferation
same,"growth modulatory effect, non-malignant hematopoietic stem cell line (ATCC 2037)",[4],lesser growth modulatory effect
same,growth of MCF-7 cells (MTT),MCF-7 cells,modulated proliferation
